The record followed here is ChEMBL document CHEMBL4334493, “14- and 15-membered lactone macrolides and their analogues and hybrids: structure, molecular mechanism of action and biological activity” (Eur J Med Chem, 2019).

In brackets after ≈: the same amount, converted by molar mass.

What all share (assay type): functional
Test [1] concerns Haemophilus influenzae. The experiment in a line: Antibacterial activity against Haemophilus influenzae 33929.
The subject of test [2] is Haemophilus influenzae. The experiment in a line: Antibacterial activity against Haemophilus influenzae 49247.
Test [3] deals with Streptococcus pneumoniae. The experiment in a line: Antibacterial activity against Streptococcus pneumoniae ATCC 49619.
The test system of test [4] is Streptococcus pneumoniae. The experiment in a line: Antibacterial activity against Streptococcus pneumoniae B1.
For test [5], the system named is Streptococcus pneumoniae. Briefly: Antibacterial activity against Streptococcus pneumoniae A22072.
The test system of test [6] is Streptococcus pneumoniae. Briefly: Antibacterial activity against Streptococcus pneumoniae AB11.
In test [7] the test system is Streptococcus pyogenes. Briefly: Antibacterial activity against Streptococcus pyogenes R2.
Test [8] concerns Staphylococcus aureus. The experiment in a line: Antibacterial activity against Staphylococcus aureus ATCC 25923.
The test system of test [9] is Staphylococcus aureus. The experiment in a line: Antibacterial activity against Staphylococcus aureus.
Test [10] has as its system Streptococcus pyogenes. Briefly: Antibacterial activity against Streptococcus pyogenes S2.
Test [11] concerns Staphylococcus aureus. The experiment in a line: Antibacterial activity against methicillin/erythromycin susceptible Staphylococcus aureus by broth microdilution method. A general note: Broth dilution looks for growth in wells or tubes with falling amounts of substance.
Test [12] relates to Staphylococcus aureus. Briefly: Antibacterial activity against methicillin susceptible and erythromycin resistant Staphylococcus aureus by broth microdilution method.
The test system of test [13] is Staphylococcus aureus. The experiment in a line: Antibacterial activity against methicillin resistant Staphylococcus aureus by broth microdilution method.
In test [14] the test system is Staphylococcus epidermidis. The experiment in a line: Antibacterial activity against methicillin resistant Staphylococcus epidermidis by broth microdilution method.
In test [15] the test system is Staphylococcus epidermidis. The experiment in a line: Antibacterial activity against methicillin susceptible Staphylococcus epidermidis by broth microdilution method.
A further test relates to Enterococcus faecalis. The experiment in a line: Antibacterial activity against Enterococcus faecalis by broth microdilution method.
Test [16] concerns Streptococcus pneumoniae. The experiment in a line: Antibacterial activity against Streptococcus pneumoniae by broth microdilution method.
Test [17] relates to Haemophilus influenzae. The experiment in a line: Antibacterial activity against Haemophilus influenzae by broth microdilution method.
For test [18], the system named is Staphylococcus haemolyticus. The experiment in a line: Antibacterial activity against Staphylococcus haemolyticus by broth microdilution method.
In test [19] the test system is Staphylococcus aureus. Briefly: Antibacterial activity against Staphylococcus aureus ATCC 29213 by broth microdilution method.
The subject of test [20] is Staphylococcus aureus. Briefly: Antibacterial activity against Staphylococcus aureus 11B117 by broth microdilution method.
Test [21] concerns Staphylococcus epidermidis. The experiment in a line: Antibacterial activity against Staphylococcus epidermidis 11X315 by broth microdilution method.
In test [22] the test system is Staphylococcus epidermidis. The experiment in a line: Antibacterial activity against Staphylococcus epidermidis 11C176 by broth microdilution method.
In test [23] the test system is Streptococcus pneumoniae. Briefly: Antibacterial activity against Streptococcus pneumoniae ATCC 49619 by broth microdilution method.
Test [24] relates to Streptococcus pneumoniae. Briefly: Antibacterial activity against Streptococcus pneumoniae 11J011 by broth microdilution method.
For test [25], the system named is Haemophilus influenzae. Briefly: Antibacterial activity against Haemophilus influenzae ATCC 49247 by broth microdilution method.
Test [26] relates to Haemophilus influenzae. Briefly: Antibacterial activity against Haemophilus influenzae 11Q373 by broth microdilution method.
The test system of another test is Moraxella catarrhalis. The experiment in a line: Antibacterial activity against Moraxella catarrhalis by broth microdilution method.
In test [27] the test system is Staphylococcus aureus. The experiment in a line: Antibacterial activity against methicillin resistant Staphylococcus aureus 33591.
Test [28] relates to Staphylococcus aureus. The experiment in a line: Antibacterial activity against methicillin resistant Staphylococcus aureus 7662.

For the compound `CC[C@H]1OC(=O)[C@H](C)C(=O)[C@H](C)[C@@H](O[C@@H]2O[C@H](C)C[C@H](N(C)C)[C@H]2O)[C@@]2(C)C[C@@H](C)C(=O)[C@H](C)[C@@H](OC/C(=N\OCc3ccc(-c4nc(N)cs4)cn3)CO2)[C@]1(C)O`, the MIC in the test on Haemophilus influenzae [1] was 2 µg/mL (≈ 2.4 µM); against Haemophilus influenzae [2], 1 µg/mL (≈ 1.2 µM).

With `CC[C@H]1OC(=O)[C@H](C)[C@@H](O[C@H]2C[C@@](C)(OC)[C@@H](OC(=O)NCc3cccc(Cl)c3)[C@H](C)O2)[C@H](C)[C@@H](OC2O[C@H](C)C[C@H](N(C)C)[C@H]2O)[C@]2(C)C[C@@H](C)/C(=N\[C@H](C)[C@H]3OC(=O)O[C@@]31C)O2` (stereo partly specified), the MIC with Streptococcus pneumoniae [3] turned out to be 0.03 µg/mL (≈ 0.0324 µM); against Streptococcus pneumoniae [4] it was 16 µg/mL (≈ 17.3 µM); against Streptococcus pneumoniae [5] it was 4 µg/mL (≈ 4.33 µM); against Streptococcus pneumoniae [6], 16 µg/mL (≈ 17.3 µM); in the test on Streptococcus pyogenes [7] it was 64 µg/mL (≈ 69.2 µM); against Staphylococcus aureus [8], 8 µg/mL (≈ 8.65 µM). The MIC against Staphylococcus aureus [9] came to 32 µg/mL (≈ 34.6 µM); with Streptococcus pyogenes [10], 1 µg/mL (≈ 1.08 µM).

With `CC[C@H]1OC(=O)[C@H](C)C(=O)[C@H](C)[C@@H](O[C@@H]2O[C@H](C)C[C@H](N(C)C)[C@H]2O)[C@](C)(OC)C[C@@H](C)C(=O)[C@H](C)[C@H]2N(CCCOC(=O)Nc3cccc(C)c3)C(=O)O[C@]12C`, the MIC50 against Staphylococcus aureus [11] was 0.125 µg/mL (≈ 0.155 µM); against Staphylococcus aureus [12], 0.25 µg/mL (≈ 0.311 µM); in the test on Staphylococcus aureus [13], 128 to 256 µg/mL (≈ 159 to 318 µM); in test [14], 1 to 128 µg/mL (≈ 1.24 to 159 µM); in test [15] it was 0.031 µg/mL (≈ 0.0386 µM); in the test on Enterococcus faecalis, greater than 256 µg/mL. Besides, the MIC50 lay within 0.062 to 0.125 µg/mL (≈ 0.0771 to 0.155 µM) in the test with Streptococcus pneumoniae [16], 4 to 8 µg/mL (≈ 4.98 to 9.95 µM) in the test on Haemophilus influenzae [17] and 1 to 2 µg/mL (≈ 1.24 to 2.49 µM) in test [18].

In the case of `CC[C@H]1OC(=O)[C@H](C)C(=O)[C@H](C)[C@@H](O[C@@H]2O[C@H](C)C[C@H](N(C)C)[C@H]2O)[C@](C)(OC)C[C@@H](C)C(=O)[C@H](C)[C@H]2N(CCCN(c3cnc4ccccc4c3)S(=O)(=O)c3ccc(C)cc3)C(=O)O[C@]12C`, the MIC50 against Staphylococcus aureus [19] was 2 µg/mL (≈ 2.1 µM); against Staphylococcus aureus [20], greater than 64 µg/mL; in [21], 1 µg/mL (≈ 1.05 µM); in [22], 1 µg/mL (≈ 1.05 µM); against Streptococcus pneumoniae [23], 0.25 µg/mL (≈ 0.263 µM); in the test with Streptococcus pneumoniae [24], 2 µg/mL (≈ 2.1 µM). For the same compound, the values for the MIC50 against Haemophilus influenzae [25], in the test with Haemophilus influenzae [26] and with Moraxella catarrhalis were 32 µg/mL (≈ 33.6 µM), 16 µg/mL (≈ 16.8 µM) and 2 µg/mL (≈ 2.1 µM), respectively.

Turning to `CC[C@H]1OC(=O)[C@H](C)C(=O)[C@H](C)[C@@H](O[C@@H]2O[C@H](C)C[C@H](N(C)C)[C@H]2O)[C@](C)(OC)C[C@@H](C)C(=O)[C@H](C)[C@H]2N(CCCN(Cc3ccccc3)c3cnc4ccccc4c3)C(=O)O[C@]12C`, the MIC50 against Staphylococcus aureus [19] is 0.25 µg/mL (≈ 0.282 µM); with Staphylococcus aureus [20], greater than 64 µg/mL; in [21], 0.25 µg/mL (≈ 0.282 µM); in [22], 0.25 µg/mL (≈ 0.282 µM); against Streptococcus pneumoniae [23] it was 0.031 µg/mL (≈ 0.0349 µM); in the test on Streptococcus pneumoniae [24], 2 µg/mL (≈ 2.25 µM). Moreover, the MIC50 against Haemophilus influenzae [25] came to 2 µg/mL (≈ 2.25 µM); in the test on Haemophilus influenzae [26], 2 µg/mL (≈ 2.25 µM); in the test on Moraxella catarrhalis it was 0.25 µg/mL (≈ 0.282 µM).

On to `CCC(=O)/N=C1\[C@H](C)C[C@@]2(C)OC/C(=N/OCc3csc(-c4cccc(N)n4)n3)CO[C@H]([C@H]1C)[C@](C)(O)[C@@H](CC)OC(=O)[C@@](C)(F)C(=O)[C@H](C)[C@H]2O[C@@H]1O[C@H](C)C[C@H](N(C)C)[C@H]1O`, for which the MIC against Staphylococcus aureus [27] came to 2 µg/mL (≈ 2.21 µM); against Staphylococcus aureus [28] it was 1 µg/mL (≈ 1.1 µM); in the test on Haemophilus influenzae [1], 4 µg/mL (≈ 4.42 µM); against Haemophilus influenzae [2], 1 µg/mL (≈ 1.1 µM).
